Results from ChEMBL document CHEMBL1154943, “Exploration of SAR features by modifications of thiazoleacetic acids as CRTH2 antagonists” (Bioorg Med Chem Lett, 2010).
pIC50: −log10 of the molar value.

Key:
[1] = target: T1, Prostaglandin D2 receptor 2 (Homo sapiens) (UniProt Q9Y5Y4); experiment: Antagonist activity at human CRTH2 receptor expressed in HEK385-7 cells assessed as inhibition of PGD2-mediated beta-arrestin translocation preincubated 5 mins prior to PGD2 challenge measured after 5 mins by BRET assay relative to control; format: functional, cell-based
T1 sequence (whole entry): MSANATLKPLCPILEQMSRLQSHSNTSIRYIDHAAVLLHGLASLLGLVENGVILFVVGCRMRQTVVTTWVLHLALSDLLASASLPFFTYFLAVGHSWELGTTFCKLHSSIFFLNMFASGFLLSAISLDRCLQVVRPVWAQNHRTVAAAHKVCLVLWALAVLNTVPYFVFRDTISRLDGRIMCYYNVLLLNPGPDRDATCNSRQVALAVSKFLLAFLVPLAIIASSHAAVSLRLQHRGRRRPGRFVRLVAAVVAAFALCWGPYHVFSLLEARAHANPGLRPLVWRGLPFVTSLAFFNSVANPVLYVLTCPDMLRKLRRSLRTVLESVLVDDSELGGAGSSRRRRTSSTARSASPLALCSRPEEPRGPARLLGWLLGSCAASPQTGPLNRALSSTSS

[2] = target: T2, Prostaglandin D2 receptor 2 (Homo sapiens, UniProt Q9Y5Y4); experiment: Antagonist activity at human CRTH2 receptor expressed in HEK385-7 cells assessed as inhibition of PGD2-mediated beta-arrestin translocation preincubated 5 mins prior to PGD2 challenge measured after 5 mins by BRET assay; format: functional, cell-based
T2 sequence (Q9Y5Y4 whole entry): T1 sequence (whole entry)

[3] = target: T2, Prostaglandin D2 receptor 2; experiment: Displacement of [3H]PGD2 from human CRTH2 receptor expressed in HEK385-7 cells; format: cell-based
Thromboxane A2 receptor = target: T3, Thromboxane A2 receptor (Homo sapiens, UniProt P21731); experiment: Inhibition of thromboxane A2 receptor
T3 sequence (P21731 whole entry): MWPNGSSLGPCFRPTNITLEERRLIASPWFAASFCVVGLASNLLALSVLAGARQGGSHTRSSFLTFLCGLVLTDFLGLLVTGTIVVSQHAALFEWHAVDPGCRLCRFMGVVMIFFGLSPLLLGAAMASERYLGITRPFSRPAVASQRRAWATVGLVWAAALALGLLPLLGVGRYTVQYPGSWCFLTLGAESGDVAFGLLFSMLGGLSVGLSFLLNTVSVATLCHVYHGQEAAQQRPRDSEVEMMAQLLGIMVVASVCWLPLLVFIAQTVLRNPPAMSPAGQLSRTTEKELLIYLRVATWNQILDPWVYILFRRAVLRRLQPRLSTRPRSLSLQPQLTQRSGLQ

[4] = target: T4, Prostaglandin D2 receptor 2 (Rattus norvegicus, UniProt Q6XKD3); experiment: Inhibition of rat CRTH2 receptor
T4 sequence (Q6XKD3 whole entry): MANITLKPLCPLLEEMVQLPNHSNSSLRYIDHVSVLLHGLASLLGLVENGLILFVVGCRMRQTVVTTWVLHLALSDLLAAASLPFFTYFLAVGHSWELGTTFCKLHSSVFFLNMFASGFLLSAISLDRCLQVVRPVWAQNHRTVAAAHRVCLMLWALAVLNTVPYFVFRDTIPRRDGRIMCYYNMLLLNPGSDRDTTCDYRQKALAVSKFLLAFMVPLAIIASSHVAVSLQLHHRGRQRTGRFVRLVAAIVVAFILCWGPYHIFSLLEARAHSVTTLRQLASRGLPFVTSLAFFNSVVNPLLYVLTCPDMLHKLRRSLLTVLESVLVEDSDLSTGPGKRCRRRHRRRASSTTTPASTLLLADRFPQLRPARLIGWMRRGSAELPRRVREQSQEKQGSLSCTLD

[5] = target: T5, Prostaglandin D2 receptor 2 (Mus musculus, UniProt Q9Z2J6); experiment: Inhibition of mouse CRTH2 receptor
T5 sequence (Q9Z2J6 whole entry): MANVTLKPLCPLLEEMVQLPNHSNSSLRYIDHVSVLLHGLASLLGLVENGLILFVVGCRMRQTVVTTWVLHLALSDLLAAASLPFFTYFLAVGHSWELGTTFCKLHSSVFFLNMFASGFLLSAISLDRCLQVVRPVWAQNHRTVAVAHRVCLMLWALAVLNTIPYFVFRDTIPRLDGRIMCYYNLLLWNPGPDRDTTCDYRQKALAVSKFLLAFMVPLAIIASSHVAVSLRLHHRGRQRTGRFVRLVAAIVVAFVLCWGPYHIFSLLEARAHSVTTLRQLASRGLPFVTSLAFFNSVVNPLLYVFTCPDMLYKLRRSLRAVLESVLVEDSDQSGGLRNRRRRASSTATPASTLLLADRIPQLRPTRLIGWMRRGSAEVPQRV

[6] = target: T6, Chemoattractant receptor-homologous molecule expressed on Th2 cells (Cavia porcellus, UniProt Q56D28); experiment: Inhibition of guinea pig CRTH2 receptor
T6 sequence (Q56D28 whole entry): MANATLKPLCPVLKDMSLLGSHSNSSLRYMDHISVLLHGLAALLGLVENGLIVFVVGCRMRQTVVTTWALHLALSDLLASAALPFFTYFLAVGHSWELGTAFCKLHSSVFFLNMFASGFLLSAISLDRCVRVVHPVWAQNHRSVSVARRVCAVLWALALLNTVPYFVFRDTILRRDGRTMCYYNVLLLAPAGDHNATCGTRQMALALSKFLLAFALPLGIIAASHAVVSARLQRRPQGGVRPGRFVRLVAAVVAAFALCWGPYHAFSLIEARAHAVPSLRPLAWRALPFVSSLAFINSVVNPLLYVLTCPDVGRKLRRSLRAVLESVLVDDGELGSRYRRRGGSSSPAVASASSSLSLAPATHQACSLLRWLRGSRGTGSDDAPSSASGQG

[7] = target: T7, Prostaglandin D2 receptor (Homo sapiens, UniProt Q13258); experiment: Inhibition of human DP receptor
T7 sequence (Q13258 whole entry): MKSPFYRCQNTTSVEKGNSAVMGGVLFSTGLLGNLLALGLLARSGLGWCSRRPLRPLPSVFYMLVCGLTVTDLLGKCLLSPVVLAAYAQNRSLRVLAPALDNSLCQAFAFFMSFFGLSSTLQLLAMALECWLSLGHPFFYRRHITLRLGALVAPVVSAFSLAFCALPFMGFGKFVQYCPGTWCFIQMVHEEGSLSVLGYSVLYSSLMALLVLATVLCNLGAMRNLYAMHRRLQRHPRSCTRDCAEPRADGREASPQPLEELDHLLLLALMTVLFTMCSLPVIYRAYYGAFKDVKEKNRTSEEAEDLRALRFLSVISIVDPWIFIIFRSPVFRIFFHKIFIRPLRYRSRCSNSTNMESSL

[8] = target: T8, Prostaglandin D2 receptor (Mus musculus, UniProt P70263); experiment: Inhibition of mouse DP receptor
T8 sequence (P70263 whole entry): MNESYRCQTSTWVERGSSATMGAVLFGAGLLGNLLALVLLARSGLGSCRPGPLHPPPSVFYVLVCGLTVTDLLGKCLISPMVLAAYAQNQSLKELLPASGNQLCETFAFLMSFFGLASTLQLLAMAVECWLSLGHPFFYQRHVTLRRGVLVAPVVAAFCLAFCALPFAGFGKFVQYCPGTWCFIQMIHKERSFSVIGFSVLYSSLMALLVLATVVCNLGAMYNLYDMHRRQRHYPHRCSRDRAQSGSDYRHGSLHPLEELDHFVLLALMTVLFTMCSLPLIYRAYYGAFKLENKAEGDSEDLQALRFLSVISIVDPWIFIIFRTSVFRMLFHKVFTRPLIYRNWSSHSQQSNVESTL

[9] = Inhibition of guinea pig DP receptor; parameters: species or system Cavia porcellus

| Structure (SMILES) | Efficacy [1] | pIC50 [2] | pIC50 [3] | also measured |
| --- | --- | --- | --- | --- |
| COc1ccc(N(c2ccc(OC)cc2)c2ncc(CC(=O)O)c(-c3cccc(F)c3)n2)cc1 | > 80% | < 4.00 | 5.55 | – |
| O=C(O)CCc1sc(C(c2ccc(F)cc2)c2ccc(F)cc2)nc1-c1cccc(F)c1 | > 80% | 6.00 | 7.12 | – |
| O=C(O)Cc1cnc(C(c2ccc(F)cc2)c2ccc(F)cc2)nc1-c1cccc(F)c1 | > 80% | 7.92 | 8.72 | pIC50 (Thromboxane A2 receptor): 4.51; pIC50 [4]: 8.12; pIC50 [5]: 8.47; pIC50 [6]: 7.54; pIC50 [7]: 5.07; pIC50 [8]: 5.23; pIC50 [9]: < 4.00 |
| O=C(O)Cc1[nH]c(C(c2ccc(F)cc2)c2ccc(F)cc2)nc1-c1ccc(F)cc1 | > 80% | < 4.00 | 5.04 | – |
| COc1ccc(N(c2ccc(OC)cc2)c2nc(-c3cccc(F)c3)c(CC(=O)O)s2)cc1 | > 80% | 6.59 | 7.82 | – |
| O=C(O)Cc1cnc(N(c2ccc(F)cc2)c2ccc(F)cc2)nc1-c1cccc(F)c1 | > 80% | < 4.00 | 5.90 | – |
| O=C(O)CCc1cnc(C(c2ccc(F)cc2)c2ccc(F)cc2)nc1-c1cccc(F)c1 | > 80% | < 4.00 | 5.68 | – |
| O=C(O)COc1sc(C(c2ccc(F)cc2)c2ccc(F)cc2)nc1-c1cccc(F)c1 | > 80% | 6.70 | 7.08 | – |

Continued, in another order:

| Efficacy [1] | pIC50 [2] | pIC50 [3] | Structure (SMILES) | also measured |
| --- | --- | --- | --- | --- |
| > 80% | 7.07 | 8.10 | CC(c1ccccc1)(c1ccccc1)c1nc(-c2ccc(F)cc2)c(CC(=O)O)s1 | – |
| > 80% | 7.14 | 7.74 | O=C(O)Cc1sc(N(c2ccccc2)c2ccccc2)nc1-c1ccc(Cl)cc1 | – |
| > 30% | 5.70 | 6.72 | CS(=O)(=O)c1ccc(N(c2ccccc2)c2nc(-c3ccc(F)cc3)c(CC(=O)O)s2)cc1 | – |
| > 30% | 5.82 | 7.37 | O=C(O)Cc1sc(N(c2ccccc2)c2cccnc2)nc1-c1ccc(F)cc1 | – |
| > 80% | 7.10 | 8.36 | O=C(O)Cc1sc(N(c2ccccc2)c2ccccc2)nc1-c1cccc(F)c1 | – |
| > 55% | 6.34 | 7.08 | N#Cc1ccc(N(c2ccccc2)c2nc(-c3ccc(F)cc3)c(CC(=O)O)s2)cc1 | – |
| > 80% | 7.01 | 7.82 | O=C(O)Cc1sc(N(c2ccccc2)c2ccccc2)nc1-c1ccc(F)cc1 | – |
| > 80% | 6.62 | 7.64 | O=C(O)Cc1sc(N(c2ccc(F)cc2)c2ccc(F)cc2)nc1-c1ccc(F)cc1 | – |
